Assays:
N9 microglial cells = test: ROS/RNI assays in stimulated N9 microglial cells; assay type: cell-based; settings: LPS- and TNFα-activated microglial cells, 20 hr
Experimental: N9 microglial cells were cultured in RPMI medium containing Glutamax (Invitrogen) and supplemented with 10% FBS (Endotoxin levels lower than 10 EU/ml). Cells were plated in 96 well plates (5×10^4 per well) and cultured overnight before stimulation with LPS (100 ng/ml) and TNFα (10 ng/ml) for 20 hr in medium supplemented with DMSO or with the tested compounds. ROS were detected by flow cytometry after microglia incubation with […] of 5-(and-6)-chloromethyl-2′,7′-dichlorodihydrofluorescein diacetate, acetyl ester (CM-H2DCFDA) (Invitrogen) for 20 min. The production of NO by iNOS was measured indirectly by assaying nitrites in the culture supernatant using the Griess reaction [Liu, 2013]. Briefly, […] of supernatants were incubated with equal amount of Griess reagent (1% sulphanilamide, 0.1% naphthylethylenediamine in 2% phosphoric acid solution) and the absorbance read at 550 nm after 20 min of incubation at room temperature.

[1] = Detection of MIND4 in mouse brain after escalated i.p. dosing; assay type: in vivo; settings: brain cortex, intraperitoneal, i.p. daily, escalated 50 to 275 mg/kg, 2 hours after last dose, HPLC, read-out: Concentration in wild type mouse cortices
Experimental: To evaluate whether MIND4 would also confer an anti-inflammatory effect in vivo, pilot studies were performed to assess brain permeability of MIND4 in mice (FIG. 7A-B). MIND4 was solubilized at 5 mg/ml in 7.5% Cremophor EL (BASF)/2.375% Ethanol in PBS, Wild type mice (N=3) were subjected to MIND4 treatment at escalated dosing from 50 mg/kg up to a final dose of 275 mg/kg administered daily by intraperitoneal (i.p.) injection. […] Mice were sacrificed 2 hours following the last drug administration and isolated cortical samples were subjected to HPLC analysis.
Specifically, frozen mouse cortical tissues were extracted in ice cold methanol containing 0.4% acetic acid (approximately 1:6 ratios), probe sonicated for 5 sec and centrifuged at 22000×g for 20 min at 4 C. The supernatant was dried under centrifugation and vacuum and reconstituted with running buffer. Reverse phase-HPLC/ECA separation was accomplished on shisedo MG240 C18 HPLC column (4.6×250 mm, 3μ particle size), flow rate 1 ml/min, using 50% methanol in 0.1M sodium phosphate buffer pH 3, isocratic elution was performed for 20 min using 4 channel electrochemical array. Levels of MIND4 in the brain samples were determined using integrated peak areas and the standard curves

[2] = tested on: 5×-ARE promoter-luciferase reporter; test: 5×-ARE-luciferase reporter assay in primary corticostriatal co-cultures; assay type: cell-based, mouse; settings: 5 μM, 4 hr or 16 hr
Experimental: (§1) Primary corticostriatal neuronal co-cultures were prepared from E18 mouse brains as previously described [Kaltenbach, 2010]. Mice were maintained in accordance with Duke University Medical Center Institutional Animal Care and Use Committee guidelines. For 5×-ARE-luciferase reporter assays, neurons were transfected following their isolation (Nucleofector, Lonza) with 2.5 μg Cignal Antioxidant Response Reporter dual luciferase plasmids (Qiagen/SABiosciences) and plated onto pre-established glial beds in 96 well plates. After 4 days in culture at 37° C. under 5% CO2, co-cultures were treated with the indicated compounds for 4 hr or 16 hr then harvested and read for luminescence from firefly and Renilla luciferases according to the Dual Glo luciferase protocol (Promega) using a SpectraMaxL luminometer (Molecular Devices). Each sample was measured in technical triplicate. For quantitative RT-PCR (qPCR) of ARE target genes, corticostriatal co-cultures were prepared as described above and, after 4 days in culture, treated for 6 hr with the indicated compounds followed by RNA harvesting according to the Absolutely RNA miniprep protocol (Agilent Technologies). Purified RNA was converted to cDNA using random hexamers and SuperScript First-Strand RT-PCR Synthesis (Invitrogen). […] Ct values were determined using primer sets against ARE genes Hmox1, Gclc and Nqo1]. […]

[3] = tested on: mutant HTT exon 1 fragment; test: Mutant HTT exon 1 levels in R6/2 mice (HTRF); assay type: in vivo, mouse; settings: 50 mg/kG daily for 3 weeks
Experimental: In effects of brain-permeable MIND4 on clearance misfloded mutant HTT fragments have been tested in HD mouse model R6/2, expressing mutant HTT exon 1 fragment. Symptomatic HD mice (5 week old) have been treated with MIND4 at 50 mg/kG daily dose for 3 weeks. Treatment effects on levels of mutant exon 1 HTT have been measured by a highly sensitive HTRF method (FIG. 17C) as described (Mosckovitch-Lopatin, 2010; Chopra, 2012).

BV2 microglia cells = test: Transcriptional expression profiling in LPS-induced microglia BV2 cells (qRT-PCR); assay type: cell-based, mouse
Experimental: To further validate the NRF2 activating properties of MIND4, effects of the compound on repression of inflammatory responses were tested in LPS-induced BV2 microglia cells, a model in which the influence of NRF2 signaling on inflammation has been well established (Koh et al., 2011). A BV2 mouse microglia cell line was maintained in DMEM media supplemented with 10% FBS (Sigma) and antibiotic-antimycotic mix. Cells were seeded into 12 well plates at the density of 3×10^5 cells/well. Cells were treated with the indicated concentrations of MIND4, MIND4-17, and MIND4A compounds for 24 hr. Cells were then stimulated with 10 ng/ml LPS (E. coli) for 2 hr. Total RNA was isolated using ZR Miniprep kit (Zymo Research). 1 μg of total RNA was used to prepare cDNA. Gene expression was analyzed using VeriQuest SYBR green assay in Roche480 thermocycler. The sequences of gene-specific primers for qPCR were as follows: […]
(§2) Immortalized bone marrow derived mouse macrophages (iBMMs) and BV2 mouse microglia cell line were used in the present study. Both cell types were maintained in DMEM media supplemented with 10% FBS and antibiotic-antimycotic mix. Cells were seeded into 12 well plates at the density of 3×10^5 cells/well. Cells were treated with the indicated concentrations of MIND4-17 compounds for 24 hr. Cells were then stimulated with 10 ng/ml LPS (E. coli, Sigma) for 2 hr. Total RNA was isolated using ZR Miniprep kit (Zymo Research). […] of total RNA was used to prepare cDNA. Gene expression was analyzed using VeriQuest SYBR green assay (Affymetrix) in Roche480 thermocycler. Primer sequences are as described above (see Example 9).

iBMM macrophages = test: Transcriptional responses in LPS-induced iBMM macrophages (qRT-PCR); assay type: cell-based, mouse; settings: 24 hr
Experimental: as §2

[4] = tested on: ARE genes Nqo1, Hmox1, Gclc; test: qPCR of ARE target genes in corticostriatal co-cultures; assay type: cell-based, mouse; settings: 6 hr
Experimental: as §1

[5] = BV2 cells, dose-dependent, 24 hr

Structure (SMILES)	Production of RNI (nitrites in supernatants) (N9 microglial cells)	ROS levels (N9 microglial cells)	concentration at 2 h [1]	Transcriptional rate of 5×-ARE promoter-luciferase reporter [2]	Mutant HTT exon 1 fragments in cortex [3]	TNFα and IL-6 gene expression (BV2 microglia cells; 3 μM 24 hr pre-treatment, LPS-activated BV2 cells)	IL-1β and MCP-1 transcription (BV2 microglia cells; 3 μM 24 hr pre-treatment, basal and LPS-induced BV2 cells)	Expression of inflammatory factors TNFα, IL-6, IL-1β and MCP-1 (iBMM macrophages)	Transcription of GCLM and NQO1 (iBMM macrophages)	Expression of inflammatory factors TNFα, IL-6, IL-1β and MCP-1 (BV2 microglia cells; [5])	Transcription of GCLM and NQO1 (BV2 microglia cells; [5])	Expression of ARE genes Nqo1, Hmox1 [4]	Expression of Gcic [4]
O=[N+]([O-])c1ccc(Sc2nnc(COc3ccccc3)n2-c2ccccc2)c2ncccc12 [MIND4, 5-nitro-8-{[5-(phenoxymethyl)-4-phenyl-4H-1,2,4-triazol-3-yl]thio}quinoline]	reduced the production of RNI	reduced ROS levels	~500 nM	able to induce increases in the transcriptional rate	Significant reduction of mutant HTT exon I fragments	correspondingly reduced	repression of both basal and LPS-induced transcription						
O=[N+]([O-])c1ccc(Sc2nnc(COc3ccccc3)n2-c2ccccc2)nc1 [MIND4-17]	reduced the production of RNI	reduced ROS levels		able to induce increases in the transcriptional rate				repressed expression of inflammatory factors	increased transcription of GCLM and NQO1	repressed transcriptional expression of inflammatory factors	increased transcription of the canonical NRF2 target genes GCLM and NQO1	increased the expression of the canonical ARE genes Nqo1, Hmox1	~2 fold
